From patent US9005677B2, “Autophagy enhancer for treatment of neurodegenerative diseases” (Macau University of Science and Technology, priority 2013, dated 2015)

Tested on: GFP-LC3 puncta formation in PC12 cells
Assay: Quantification of autophagy GFP-LC3 puncta
Type: cell-based, rat
Details: fluorescent microscopy
Experimental: Quantification of autophagy GFP-LC3 Puncta. GFP-LC3 puncta formation was quantified as described previously. In brief, cells grown on coverslips in a 6-well plate were fixed in 4% paraformaldehyde for 20 minutes at room temperature and then rinsed with PBS. Slides were mounted with FluorSave™ mounting media (Calbiochem, San Diego, Calif.) and examined by fluorescence microscopy. The number of GFP-positive cells with GFP-LC3 puncta formation was examined under the Nikon ECLIPSE 80i microscope. Representative images were captured with CCD digital camera Spot RT3™ (Diagnostic Instruments, Inc., Melville, N.Y.). To quantify autophagy, the percentage of cells with punctate GFP-LC3 fluorescence was calculated by counting the number of the cells with punctate GFP-LC3 fluorescence in GFP-positive cells. A minimum of 150 cells from 3 randomly selected fields was scored.

`CC1(C)CC[C@]2(C(=O)O)CCC3=C([C@@H](CCl)C[C@@H]4[C@@]5(C)C[C@H](O)[C@H](O)[C@@](C)(C(=O)O)[C@@H]5CC[C@@]34C)[C@@H]2C1` [senegenin] was tested. Which GFP-LC3 puncta formation did it give?
Its GFP-LC3 puncta formation is “no autophagy activity”.

With `CC1(C)CCC2(C(=O)O)C(O)CC3(C)C(=CCC4C5(C)CC(O)C(O)C(C)(CO)C5CCC43C)C2C1` (centres unmarked) [polygalacic acid] as the compound, how does the GFP-LC3 puncta formation read?
The GFP-LC3 puncta formation was “no autophagy activity”.
